Here are results for one molecule from patent US10172911B2, “Methods of modulating erythropoiesis with arginine vasopressin receptor 1B molecules” (The United States of America, as represented by the …, priority 2013, dated 2019).

“Also recorded” adds a separate entry of the source.

For test [1], the system named is mice. The test is described as follows: Sublethal irradiation anemia model. It is filed as in vivo, mouse. The protocol: Mice were irradiated with 4.5 Grays, and 24 hours later mice were implanted with ALZET micro-osmotic pumps as described above to deliver AVP or vehicle. Mice were treated with Trimethoprim and Sulfamethoxazole (Bactrim, Septra) for 7 days before irradiation and continued the treatment for 4 weeks after irradiation. Using a pediatric formulation, the stock concentration contains 40 mg/5 ml Trimethoprim and 200 mg/5 ml Sulfa, so that the treated drinking water will deliver 0.13 mg/ml trimethoprim and 0.67 mg/ml sulfa to the mice.

Test [2] deals with mice. The test is described as follows: Phenylhydrazine (hemolytic) anemia model. Type of test: in vivo, mouse. Particulars: day 2 and day 4. The procedure: Phenylhydrazine, a known hemolytic agent, was injected intraperitoneally by administration of phenylhydrazine hydrochloride ip. 50 mg/kg body wt. (injection volume range of 100-150 μls) on day 0 and 1 and then mice were implanted with ALZET micro-osmotic pumps as described above to deliver AVP or vehicle. Blood samples were taken at 2, 4 and in some cases 6 and 14 days later to determine hematocrit and corrected reticulocyte values.

For another test, the system named is WT mice. Put plainly: AVP infusion in unmanipulated WT mice. The following applies: infused over a 3 week period. Type of test: in vivo, mouse.
The subject of test [3] is CD34^+ cells from healthy donors. The test is described as follows: CFU assay (E-CFU, GM-CFU) of human CD34+ cells in Methocult. Type of test: cell-based. Particulars: per 1000 plated CD34+ cells; 10^−8 M. The procedure: CD34^+ cells from healthy donors were plated into semi-solid methylcellulose medium (Methocult) containing hematopoietic factors (GM-CSF 5 ng/ml, IL-3 5 ng/ml, SCF 50 ng/ml, EPO 2.5 U/ml).
The number of erythroid colony forming units (E-CFU) and granulocyte-macrophage colony forming units (GM-CFU) were determined based on morphological criteria on 7th and 14th days in culture.

The subject of a further test is β-catenin. The test is described as follows: β-catenin immunostaining of AVP-stimulated human CD34+ cells. The following applies: 10^−10 M, 24 hours. Type of test: cell-based. The text has this:
FIGS. 3A-3D show studies of signaling pathways. FIG. 3A provides results from CFU assays showing E-CFU and GM-CFU numbers/1000 plated cells. […] Error bars represent means±SD * p<0.05, ** p<0.01, unpaired t-test. […] The cells were then fixed with 4% paraformaldehyde and washed before immunostaining. Following permeabilization with Triton-X 100 a primary antibody to β-catenin was applied followed by a fluorescent secondary antibody. The β-catenin translocated to the nucleus at the 10^−10 AVP concentration confirming the activation of the Wnt pathway. Scale: 10 μm. […] Using Q-PCR to detect changes in genes that reflect Wnt pathway activation, increases in CCND1, MYC and LEF1 in response to AVP stimulation were observed.
FIGS. 8A-8C show AVP stimulation results in the nuclear translocation of β-catenin affecting the Wnt pathway. […] The cells were then fixed with 4% paraformaldehyde and washed before immunostaining. Following permeabilization with Triton-X 100, a primary antibody to β-catenin was applied followed by a fluorescent secondary antibody. The β-catenin translocated to the nucleus at the 10^−10 M AVP concentration confirming the activation of the Wnt pathway. Scale: 10 μm. FIG. 8B CFU assays showing E-CFU and GM-CFU numbers/1000 plated cells. […] Error bars represent means±SD * p<0.05, ** p<0.01, unpaired t-test.

The test system of a further test is splenectomized mice. The test is described as follows: Hemorrhage in splenectomized mice. It is filed as in vivo, mouse. Particulars: splenectomized mice vs controls. The protocol: Three to four month old mice were splenectomized and recovered for a month. AVP was administered at the time of bleeding and blood was sampled 2 and 4 days later for hematocrit and reticulocyte measurements.

For the molecule `NC(=O)CC[C@@H]1NC(=O)[C@H](Cc2ccccc2)NC(=O)[C@H](Cc2ccc(O)cc2)NC(=O)[C@@H](N)CSSC[C@@H](C(=O)N2CCC[C@H]2C(=O)N[C@@H](CCCN=C(N)N)C(=O)NCC(N)=O)NC(=O)[C@H](CC(N)=O)NC1=O` [AVP, [Arg8]-Vasopressin], in the test on mice [1] (sublethal irradiation, day 2 and day 4), the “outcome measures (hematocrit, corrected reticulocytes)” value is “significantly improved outcome measures on day 2 and to some extent on day 4”. Moreover, the “hematocrit and reticulocyte numbers” value in the test on mice [1] (sublethally irradiated mice) was “rapid elevations in hematocrit and reticulocyte numbers”. In addition, in the test on mice [2], the “outcome measures (hematocrit, corrected reticulocytes)” value was “significantly improved outcome measures on day 2 and to some extent on day 4”. In addition, in the test on WT mice, the RBC numbers result is recorded as “gradually increased RBC numbers”. Moreover, in test [3], the “erythroid-colony forming unit (E-CFU) numbers” value is reported as “significantly increased; also recorded: increased erythroid colony formation”; the “granulocyte macrophage-colony forming unit (GM-CFU) numbers” value is “increased both E-CFU and GM-CFU in another”. Further, the “nuclear translocation of β-catenin” value with β-catenin is “drives nuclear translocation of β-catenin; also recorded: had this effect”. Further, the AVP-induced hematocrit response entry in the test on splenectomized mice is recorded as “no different from controls”.
